Test results as given in PubChem BioAssay (NCI).
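48-hour exposure; five concentrations; linearly interpolated endpoints. TGI: total growth inhibition.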

Legend:
Test in all cases: NCI-60 cell line screen, 48 h
SF-268 CNS = system: SF-268 CNS
SK-MEL-2 melanoma = system: SK-MEL-2 melanoma
HCT-15 colon = system: HCT-15 colon
OVCAR-5 ovarian = system: OVCAR-5 ovarian
SR leukemia = system: SR leukemia
OVCAR-4 ovarian = system: OVCAR-4 ovarian
MCF7 breast = system: MCF7 breast
SK-OV-3 ovarian = system: SK-OV-3 ovarian
PC-3 prostate = system: PC-3 prostate
SNB-19 CNS = system: SNB-19 CNS
MDA-MB-435 = system: MDA-MB-435
U251 CNS = system: U251 CNS
CCRF-CEM leukemia = system: CCRF-CEM leukemia
HS 578T breast = system: HS 578T breast
UACC-257 melanoma = system: UACC-257 melanoma
HT29 colon = system: HT29 colon
A498 renal = system: A498 renal
IGROV1 ovarian = system: IGROV1 ovarian
OVCAR-8 ovarian = system: OVCAR-8 ovarian
MALME-3M melanoma = system: MALME-3M melanoma
KM12 colon = system: KM12 colon
TK-10 renal = system: TK-10 renal
MOLT-4 leukemia = system: MOLT-4 leukemia
HCC-2998 colon = system: HCC-2998 colon
M14 melanoma = system: M14 melanoma
SF-539 CNS = system: SF-539 CNS
NCI-H226 lung = system: NCI-H226 lung
NCI/ADR-RES ovarian = system: NCI/ADR-RES ovarian
BT-549 breast = system: BT-549 breast
HL-60(TB) leukemia = system: HL-60(TB) leukemia
K-562 leukemia = system: K-562 leukemia
RPMI-8226 leukemia = system: RPMI-8226 leukemia
SK-MEL-28 melanoma = system: SK-MEL-28 melanoma
HOP-62 NSCLC = system: HOP-62 NSCLC
ACHN renal = system: ACHN renal
OVCAR-3 ovarian = system: OVCAR-3 ovarian
UO-31 renal = system: UO-31 renal
CAKI-1 renal = system: CAKI-1 renal
NCI-H23 lung = system: NCI-H23 lung
NCI-H460 lung = system: NCI-H460 lung
SF-295 CNS = system: SF-295 CNS
UACC-62 melanoma = system: UACC-62 melanoma
DU-145 prostate = system: DU-145 prostate
SK-MEL-5 melanoma = system: SK-MEL-5 melanoma
MDA-N = system: MDA-N
EKVX NSCLC = system: EKVX NSCLC
786-0 renal = system: 786-0 renal
RXF 393 renal = system: RXF 393 renal
MDA-MB-231 breast = system: MDA-MB-231 breast
A549 NSCLC = system: A549 NSCLC
HOP-92 NSCLC = system: HOP-92 NSCLC
HCT-116 colon = system: HCT-116 colon
COLO 205 colon = system: COLO 205 colon
SN12C renal = system: SN12C renal
SNB-75 CNS = system: SNB-75 CNS
T-47D breast = system: T-47D breast
SW-620 colon = system: SW-620 colon
LOX IMVI melanoma = system: LOX IMVI melanoma
NCI-H522 lung = system: NCI-H522 lung

For `Cn1c(=O)c2c(nc(-n3nc(-c4ccc(Cl)cc4)cc3N)n2C)n(C)c1=O`, the TGI (SF-268 CNS) was > 100 µM, the TGI (SK-MEL-2 melanoma) was > 100 µM and the TGI (HCT-15 colon) was > 100 µM. The TGI (OVCAR-5 ovarian) was > 100 µM, the TGI (SR leukemia) was > 100 µM and the TGI (OVCAR-4 ovarian) was > 100 µM. The TGI (MCF7 breast) was > 100 µM, the TGI (SK-OV-3 ovarian) was 91 µM and the TGI (PC-3 prostate) was > 100 µM. For the same compound, the TGI (SNB-19 CNS) was > 100 µM, the TGI (MDA-MB-435) was > 100 µM and the TGI (U251 CNS) was > 100 µM. For the same compound, the TGI (CCRF-CEM leukemia) was > 100 µM, the TGI (HS 578T breast) was > 100 µM and the TGI (UACC-257 melanoma) was > 100 µM. The TGI (HT29 colon) was > 100 µM, the TGI (A498 renal) was > 100 µM and the TGI (IGROV1 ovarian) was > 100 µM. For the same compound, the TGI (OVCAR-8 ovarian) was > 100 µM, the TGI (MALME-3M melanoma) was 83.2 µM and the TGI (KM12 colon) was > 100 µM. For the same compound, the TGI (TK-10 renal) was > 100 µM, the TGI (MOLT-4 leukemia) was > 100 µM and the TGI (HCC-2998 colon) was > 100 µM. For the same compound, the TGI (M14 melanoma) was > 100 µM, the TGI (SF-539 CNS) was 69.4 µM and the TGI (NCI-H226 lung) was > 100 µM. For the same compound, the TGI (NCI/ADR-RES ovarian) was > 100 µM, the TGI (BT-549 breast) was > 100 µM and the TGI (HL-60(TB) leukemia) was > 100 µM. The TGI (K-562 leukemia) was > 100 µM, the TGI (RPMI-8226 leukemia) was > 100 µM and the TGI (SK-MEL-28 melanoma) was > 100 µM. The TGI (HOP-62 NSCLC) was 81.9 µM, the TGI (ACHN renal) was > 100 µM and the TGI (OVCAR-3 ovarian) was > 100 µM. For the same compound, the TGI (UO-31 renal) was > 100 µM, the TGI (CAKI-1 renal) was > 100 µM and the TGI (NCI-H23 lung) was > 100 µM. The TGI (NCI-H460 lung) was > 100 µM, the TGI (SF-295 CNS) was > 100 µM and the TGI (UACC-62 melanoma) was > 100 µM. For the same compound, the TGI (DU-145 prostate) was > 100 µM, the TGI (SK-MEL-5 melanoma) was > 100 µM and the TGI (MDA-N) was > 100 µM. For the same compound, the TGI (EKVX NSCLC) was > 100 µM, the TGI (786-0 renal) was > 100 µM and the TGI (RXF 393 renal) was > 100 µM. For the same compound, the TGI (MDA-MB-231 breast) was > 100 µM, the TGI (A549 NSCLC) was > 100 µM and the TGI (HOP-92 NSCLC) was > 100 µM. The TGI (HCT-116 colon) was > 100 µM, the TGI (COLO 205 colon) was > 100 µM and the TGI (SN12C renal) was > 100 µM.
`CC(NNC(=O)c1ccncc1)c1ccc(F)cc1` (configuration not stated) was tested, and the TGI (SF-268 CNS) was > 100 µM, the TGI (SK-MEL-2 melanoma) was > 100 µM and the TGI (HCT-15 colon) was > 100 µM. For the same compound, the TGI (OVCAR-5 ovarian) was > 100 µM, the TGI (OVCAR-4 ovarian) was > 100 µM and the TGI (MCF7 breast) was > 100 µM. The TGI (SK-OV-3 ovarian) was > 100 µM, the TGI (PC-3 prostate) was > 100 µM and the TGI (SNB-19 CNS) was > 100 µM. For the same compound, the TGI (MDA-MB-435) was > 100 µM, the TGI (U251 CNS) was > 100 µM and the TGI (CCRF-CEM leukemia) was > 100 µM. The TGI (HS 578T breast) was > 100 µM, the TGI (UACC-257 melanoma) was > 100 µM and the TGI (HT29 colon) was > 100 µM. For the same compound, the TGI (A498 renal) was > 100 µM, the TGI (IGROV1 ovarian) was > 100 µM and the TGI (OVCAR-8 ovarian) was > 100 µM. The TGI (SNB-75 CNS) was > 100 µM, the TGI (MALME-3M melanoma) was > 100 µM and the TGI (KM12 colon) was > 100 µM. For the same compound, the TGI (TK-10 renal) was > 100 µM, the TGI (MOLT-4 leukemia) was > 100 µM and the TGI (HCC-2998 colon) was > 100 µM. For the same compound, the TGI (T-47D breast) was > 100 µM, the TGI (M14 melanoma) was > 100 µM and the TGI (SF-539 CNS) was > 100 µM. The TGI (NCI-H226 lung) was > 100 µM, the TGI (NCI/ADR-RES ovarian) was > 100 µM and the TGI (BT-549 breast) was > 100 µM. The TGI (HL-60(TB) leukemia) was > 100 µM, the TGI (K-562 leukemia) was > 100 µM and the TGI (SK-MEL-28 melanoma) was > 100 µM. The TGI (HOP-62 NSCLC) was > 100 µM, the TGI (ACHN renal) was > 100 µM and the TGI (OVCAR-3 ovarian) was > 100 µM. For the same compound, the TGI (UO-31 renal) was > 100 µM, the TGI (CAKI-1 renal) was > 100 µM and the TGI (NCI-H23 lung) was > 100 µM. The TGI (NCI-H460 lung) was > 100 µM, the TGI (SF-295 CNS) was > 100 µM and the TGI (SW-620 colon) was > 100 µM. For the same compound, the TGI (UACC-62 melanoma) was > 100 µM, the TGI (DU-145 prostate) was > 100 µM and the TGI (SK-MEL-5 melanoma) was > 100 µM. The TGI (MDA-N) was > 100 µM, the TGI (EKVX NSCLC) was > 100 µM and the TGI (786-0 renal) was > 100 µM. For the same compound, the TGI (RXF 393 renal) was > 100 µM, the TGI (LOX IMVI melanoma) was > 100 µM and the TGI (MDA-MB-231 breast) was > 100 µM. For the same compound, the TGI (A549 NSCLC) was > 100 µM, the TGI (HOP-92 NSCLC) was > 100 µM and the TGI (NCI-H522 lung) was > 100 µM. The TGI (HCT-116 colon) was > 100 µM, the TGI (COLO 205 colon) was > 100 µM and the TGI (SN12C renal) was > 100 µM.
In the case of `O=[N+]([O-])C(C(Cl)=C(Cl)Cl)=C(N(Cc1ccccc1)Cc1ccccc1)N(Cc1ccccc1)Cc1ccccc1`, the TGI (SF-268 CNS) is reported as > 100 µM, the TGI (SK-MEL-2 melanoma) is reported as 98.3 µM and the TGI (HCT-15 colon) is reported as > 100 µM. For the same compound, the TGI (OVCAR-5 ovarian) was > 100 µM, the TGI (MCF7 breast) was > 100 µM and the TGI (SK-OV-3 ovarian) was > 100 µM. The TGI (PC-3 prostate) was > 100 µM, the TGI (SNB-19 CNS) was > 100 µM and the TGI (MDA-MB-435) was 79.8 µM. The TGI (U251 CNS) was > 100 µM, the TGI (CCRF-CEM leukemia) was 60.6 µM and the TGI (HS 578T breast) was > 100 µM. For the same compound, the TGI (UACC-257 melanoma) was > 100 µM, the TGI (HT29 colon) was > 100 µM and the TGI (A498 renal) was 86.6 µM. The TGI (IGROV1 ovarian) was > 100 µM, the TGI (OVCAR-8 ovarian) was > 100 µM and the TGI (SNB-75 CNS) was > 100 µM. For the same compound, the TGI (MALME-3M melanoma) was > 100 µM, the TGI (KM12 colon) was > 100 µM and the TGI (TK-10 renal) was > 100 µM. For the same compound, the TGI (MOLT-4 leukemia) was > 100 µM, the TGI (HCC-2998 colon) was 55.4 µM and the TGI (T-47D breast) was > 100 µM. For the same compound, the TGI (M14 melanoma) was > 100 µM, the TGI (SF-539 CNS) was 76.6 µM and the TGI (NCI-H226 lung) was > 100 µM. For the same compound, the TGI (NCI/ADR-RES ovarian) was > 100 µM, the TGI (BT-549 breast) was > 100 µM and the TGI (HL-60(TB) leukemia) was 78 µM. The TGI (K-562 leukemia) was > 100 µM, the TGI (SK-MEL-28 melanoma) was > 100 µM and the TGI (HOP-62 NSCLC) was > 100 µM. The TGI (ACHN renal) was > 100 µM, the TGI (OVCAR-3 ovarian) was > 100 µM and the TGI (UO-31 renal) was > 100 µM. The TGI (CAKI-1 renal) was > 100 µM, the TGI (NCI-H23 lung) was > 100 µM and the TGI (NCI-H460 lung) was > 100 µM. For the same compound, the TGI (SF-295 CNS) was > 100 µM, the TGI (SW-620 colon) was > 100 µM and the TGI (UACC-62 melanoma) was > 100 µM. The TGI (DU-145 prostate) was > 100 µM, the TGI (SK-MEL-5 melanoma) was > 100 µM and the TGI (MDA-N) was > 100 µM. The TGI (EKVX NSCLC) was > 100 µM, the TGI (786-0 renal) was > 100 µM and the TGI (RXF 393 renal) was > 100 µM. The TGI (LOX IMVI melanoma) was > 100 µM, the TGI (MDA-MB-231 breast) was > 100 µM and the TGI (A549 NSCLC) was > 100 µM. For the same compound, the TGI (HOP-92 NSCLC) was 57.1 µM, the TGI (NCI-H522 lung) was > 100 µM and the TGI (HCT-116 colon) was > 100 µM. For the same compound, the TGI (COLO 205 colon) was > 100 µM and the TGI (SN12C renal) was > 100 µM.
